Measured values from patent US12678514B2, “Algae-based microrobot for drug delivery” (priority 2023, dated 2026).
In brackets after ≈: the same amount, converted by molar mass.

Experiments:
P. aeruginosa = assay: In vitro antibacterial activity (MIC, minimal bactericidal concentration); type: cell-based, Pseudomonas aeruginosa; settings: CFU enumeration
[1] = In vivo safety evaluation of algae-NP(DOX)-robot; design: species or system C57BL/6 mice
Description: In vivo toxicity assessment of algae-NP(DOX)-robot. Finally, the toxicity profile of the algae-NP(DOX)-robot was assessed. Healthy mice were subjected to intratracheal administration using one of three different treatments: algae-NP(DOX)-robot, free DOX, and NP(DOX). Each mouse received a total of four 75-μg DOX doses given every other day. A blood count and a comprehensive metabolic panel were performed one day after the final injection to assess the effects of these treatments.
In vivo safety evaluation. Healthy female C57BL/6 mice were intratracheally administered with free DOX, NP(DOX) and algae-NP(DOX)-robot every other day for a total of four injections. Mice without treatment were used as controls. At 24 h following the last treatment, blood samples were collected via submandibular puncture into Microvette 100 EDTA K3E tubes (Sarstedt) for blood cell quantification. To collect serum for comprehensive blood chemistry analysis, blood samples were obtained without any anticoagulant, placed at room temperature for 30 min, and centrifuged at 3000 g for 10 min. Both the blood cell quantification and blood chemistry analyses were performed by the Animal Care Program Diagnostic Services Laboratory at UCSD. For histological analysis, the heart, liver, spleen, lungs and kidneys were excised and fixed in phosphate-buffered 10% formalin (Fisher Chemical), followed by sectioning and hematoxylin and eosin staining. These histological procedures were conducted by the Moores Cancer Center Tissue Technology Shared Resource.

[2] = test system: B16-F10-Luc2 melanoma lung metastasis; assay: In vivo efficacy in a lung metastasis model; design: species or system C57BL/6 mice
Description: This model was established by intravenously injecting 1×10^5 B16-F10-Luc2 cells through the tail vein of C57BL/6 mice. The treatment regimen consisted of four 75-μg DOX doses given every other day, with the first dose administered one day after the tumor challenge. […] We also quantified the overall lung metastasis burden based on the bioluminescence intensity in the lungs (FIG. 16d). […] Additionally, we monitored for changes in body weight during the entire treatment period (FIG. 16g).
In vivo efficacy in a lung metastasis model. […] The mice received treatment with free DOX, NP(DOX) and algae-NP(DOX)-robot through intratracheal instillation on days 1, 3, 5 and 7 after tumor cell inoculation. Mice without treatment were used as controls. To monitor tumor growth, on days 12, 16, 20, 24 and 28 after tumor cell inoculation, the mice were intraperitoneally administered 200 μl of 5 mg ml^−1 D-luciferin (Syd Labs) in DPBS (Gibco). Bioluminescence signals were detected using a PerkinElmer Xenogen IVIS 200 system. The body weight and survival of each mouse were also monitored throughout the study.

| Compound | minimal bactericidal concentration (P. aeruginosa) | liver and kidney biomarkers (ALB, ALP, ALT, BUN, TBIL, CRE) ([1]; four 75-μg DOX doses, one day after final dose) | histology of heart, liver, spleen, lungs and kidneys ([1]; mouse, in vivo) | other biomarkers (CA, GLU, PHOS, K+, Na+, TP) ([1]; mouse, in vivo) | white blood cells, red blood cells and platelets ([1]; mouse, in vivo) | median survival time ([2]; four 75-μg DOX doses intratracheal) | body weight during treatment ([2]; mouse, in vivo) |
| --- | --- | --- | --- | --- | --- | --- | --- |
| O=C(O)c1cn(C2CC2)c2cc(N3CCNCC3)c(F)cc2c1=O [free Cip, ciprofloxacin] | 0.125 µg/mL (≈ 0.377 µM) | – | – | – | – | – | – |
| COc1cccc2c1C(=O)c1c(O)c3c(c(O)c1C2=O)C[C@@](O)(C(=O)CO)C[C@@H]3O[C@H]1C[C@H](N)[C@H](O)[C@H](C)O1 [free DOX, doxorubicin] | – | no abnormalities | no observable damage | within their normal ranges | elevated platelet levels | 27 days | pronounced decline in body weight |
